US5167947A, “Enhancement of absorption of radioprotective drugs” (Southwest Research Institute, priority 1989, dated 1992)
Values joined by “and” are separate entries in the source; they are usually repeats but may differ in a detail not shown here. Equal values may be shown once. Read-outs that look alike come from different tables or passages of the source.

Tests used:
[1] = intraduodenal administration of ethiofos to Rhesus monkeys, plasma levels; format: in vivo; conditions: Rhesus monkey; for plasma levels on coadministration of ethiofos with EDTA: ethiofos / free and total WR-1065
Experimental: An ethiofos solution was administered via rapid infusion through an infant nasogastric tube instilled in the duodenum of Rhesus monkeys. X-rays were taken to ensure proper location of the tube prior to drug administration. […] Prior to administration of dosing solution, 10 ml of 1 mM EDTA was predosed into the duodenum over 1 hr using a calibrated infusion pump.
(§1) Ethiofos was separated on a Bioanalytical Systems […] Phase II C18 ODS analytical column with an Uptight guard column packed with Whatman Pellicular C18 37-53 mm material. Amperometric detection was conducted with a Bioanalytical Systems LC 4B amperometric detector with a Hg/Au transducer ell. Detector signal was output to a Waters Associates Model 840 data system.
(§2) A […] portion of blood was immediately treated with […] of chilled (0°-4° C.) 1.0M HC10 containing 1 g/L EDTA. The samples were vortexed and centrifuged at 15,600×g for 45 sec. […] Samples were immediately frozen at -78° C. in a dry ice/2-propanol bath and transferred to a freezer maintained at -78° C.
(§3) The samples were prepared for HPLC analysis by adding 200 ml of buffer (pH 10). Samples were injected onto HPLC Unit A and amperometrically detected with an Hg/Au electrode at +0.25 V. The assay method has been previously described by Swynnerton, McGovern, Nino and Mangold: J. Radiat. Oncol.
(§4) J. Radiat. Oncol. […] Samples were injected on HPLC Unit B and amperometrically detected at +0.15 V.

[2] = in situ rat intestinal perfusion of ethiofos: circulating perfusate and portal blood; format: in vivo, rat (male Sprague-Dawley); conditions: for plasma concentration change on addition of Na2 EDTA: 1.0 mM Na2 EDTA vs without; for levels in portal blood samples, change on addition of Na2 EDTA: 1 mM Na2 EDTA vs without, ethiofos / total WR-1065; for level in portal blood: perfusion of [14C]ethiofos in pH-adjusted water, intact ethiofos / total WR-1065
Experimental: Male Sprague-Dawley rats were maintained on a regular diet of rat chow prior to dosing and fasted 16 h before the experiment. Water was available ad libitum.
Rats weighing between 250 g and 325 g were chosen and anesthetized with 50.0 mg/kg sodium pentobarbital ip. The cannulation of the intestine was performed as previously described.
The proximal cannula was inserted through the stomach wall past the pyloric sphincter for experiments which included the bile flow. Experiments which excluded the bile flow were cannulated approximately 3 cm distal to the pyloric spinchter. Five microcuries of (^3 H)PEG 4000 was included in the perfusate to monitor water flux. For some experiments, 1 mCi of (^14 C)ethiofos was added to the reservoir.
Concommitant sampling of blood was accomplished by insertion of a catheter in the portal vein via the ileocecal vein. […] Rectal temperature was monitored in early experiments to assure maintenance of body temperature in this system.
as §1, §2, §3, §4

[3] = cited from earlier work
[4] = in vivo; cited from earlier work
[5] = system: Rhesus monkeys; conditions: cited from earlier work
[6] = system: mice; conditions: cited from earlier work
[7] = system: dogs; conditions: cited from earlier work
[8] = system: mice; conditions: intravenous; cited from earlier work
[9] = system: circulating calcium; conditions: human clinical trials; cited from earlier work
[10] = in vivo; cited from earlier work; remark: listed apart in the source
[11] = stomach acid; cited from earlier work

O=C(O)CN(CCN(CC(=O)O)CC(=O)O)CC(=O)O [EDTA, ethylenediaminetetraacetic acid]
absorption of ethiofos with EDTA ([1]; intraduodenal, awake): enhanced the absorption | protection of ethiofos degradation in the lumen by EDTA ([2]; rat in situ): some protection | rate of absorption of ethiofos with EDTA ([2]; rat in situ): increase the rate of absorption | EDTA concentration at which increased absorption reaches a maximum ([2]; rat intestinal perfusion of ethiofos): approximately 1 mM | EDTA concentration giving highest ethiofos levels in portal blood ([2]; rat, 90 minutes in situ intestinal perfusion): 1.5 mM

NCCCNCCS [WR-1065]
halflife compared with ethiofos ([3]; rhesus monkey, in vivo, iv): much long halflife | plasma levels on coadministration of ethiofos with EDTA ([1]; intraduodenal, awake): substantial increase | toxicity of the free thiol relative to the parent drug ethiofos [4]: much more toxic | plasma concentration change on addition of Na2 EDTA ([2]; rat): significant increase | levels in portal blood samples, change on addition of Na2 EDTA ([2]; rat): significant increases | metabolite formed in the intestinal lumen ([2]; rat, from perfusate mass balance): major metabolite | level in portal blood ([2]; rat, no EDTA): comparatively high levels

NCCCNCCSP(=O)(O)O [ethiofos, S-2-(3-aminopropylamino)ethylphosphorothioic acid]
protection against X-rays and gamma radiation ([5]; Rhesus monkeys, intravenous): has been shown to protect | protection (oral dosing) ([5]; monkeys, oral): failed to protect | plasma halflife ([3]; iv, rhesus monkeys 150 mg/kg): approximately 18 minutes | ethiofos or its metabolites excreted in the urine within 120 hours ([3]; rhesus monkeys, iv 150 mg/kg, most within 24 hours): 80% | plasma levels on coadministration of ethiofos with EDTA ([1]; intraduodenal, awake): detectable levels | AUC ([1]; in vivo, intraduodenal 150 mg/kg, in the presence of EDTA (47:1 ethiofos to EDTA), read-out: AUC (plasma concentration-time curve)): 0.55 µM·h | approximate LD50 ([6]; intraperitoneal): ~950 mg/kg | approximate LD50 ([6]; oral): ~1500 mg/kg | protection against X-rays and gamma radiation ([7]; intravenous): has been shown to protect | protection (oral dosing) ([7]; oral): failed to protect | protection against X-rays and gamma radiation [8]: has been shown to protect | loss of circulating calcium [9]: loss of circulating calcium | disappearance of parent compound from the perfusate ([2]; rat in situ, [14C]ethiofos in pH-adjusted water, first 30 minutes, no EDTA): fairly rapid rate | radioactivity accounted for by ethiofos and measured metabolite (mass balance of perfusate) ([2]; rat intestinal perfusate, no EDTA): approximately 85% | radioactivity not accounted for by WR-1065 and ethiofos ([2]; rat intestinal perfusate, no EDTA, may be disulfides): 15% | plasma concentration change on addition of Na2 EDTA ([2]; rat): significant increase | levels in portal blood samples, change on addition of Na2 EDTA ([2]; rat): significant increases | labelled ethiofos / radioactivity remaining in the circulating perfusate ([2]; rat, 90 min perfusion, pH-adjusted water, no EDTA): 90.5±1.7% and 90.5±1.74% | radioactivity remaining in the circulating perfusate ([2]; rat, 90 min perfusion, with 1.0 mM Na2 EDTA): 85.8±1.09% | factor of increase of appearance of ethiofos in rat portal blood ([2]; rat, EDTA enhancement, 90 minutes in situ perfusion): 20 | level in portal blood ([2]; rat, no EDTA): transient and low levels | slowing of stomach motility and gastric emptying [10]: can slow stomach motility and gastric emptying | hydrolysis in the acidic environment of the stomach [11]: can be hydrolyzed
